Experimental data from patent US8901313B2, “6,5-heterocyclic propargylic alcohol compounds and uses therefor” (Genentech, Inc., priority 2011, dated 2014).

How the values were obtained:
[1] = tested on: REL-A (p65) nuclear translocation in HeLa cells; test: NIK RelA Translocation Assay (classical NF-kB signaling); type: cell-based; conditions: Homo sapiens; HeLa cells, compounds 4.5 hours, 10 ng/mL TNF-α 30 minutes; read-out: inhibitory value (IC50) for NIK RelA Translocation Assay
Experimental: (§1) (2) A second set of cell assay was used to define the selectivity of NIK inhibitors toward inhibition of classical vs. non-classical NF-kB signaling and rely on quantification of the nuclear translocation of p52 (NF-kB2) and REL-A (p65) using high content cellular imaging. For the p52 (non-classical NF-kB signaling) nuclear translocation assay, HeLa cells were treated with different concentrations of compounds (0.2% DMSO final) in medium containing 10% fetal bovine serum and then stimulated with 100 ng/mL of an anti-lymphotoxin beta receptor antibody (R&D Systems) for 5 hours. In the REL-A nuclear translocation assay, HeLa cells were incubated with compounds (0.2% DMSO final) for 4.5 hours in medium containing 10% fetal bovine serum before stimulating them with 10 ng/mL tumor necrosis factor (TNF)-α (R&D Systems) for 30 minutes. Cells were fixed with 4% paraformaldehyde, permeabilized by adding 0.1% Triton X-100 in phosphate buffered saline, and then incubated with either 2 ug/mL anti-p52 antibody (Millipore) or 400 ng/mL anti-REL-A (p65) antibody (Santa Cruz Biotechnology). Finally, the cells were incubated with an Alexa488-labeled secondary antibody (Invitrogen) and DRAQ5 DNA stain (Biostatus). Imaging was carried out using an Opera reader (Perkin Elmer) and data are analyzed with the aid of Acapella software (Perkin Elmer). The p52 or REL-A translocation into the nucleus was quantified by the ratio of the nuclear to cytoplasmic signal intensity. The concentration of inhibitor required for 50% inhibition (IC50 values) in these cell assays were derived from the plots of signal vs. inhibitor concentration. The compounds in listed in Table 1 have the corresponding inhibitory value (IC50 in micromolar) for NIK p52 Translocation Assay (values for compounds are presented in the same order as found in Table 1, and “na” means the data for this assay is to be determined): 0.326, 0.33, na, na, na, 0.218, 0.07, na, na, na, 0.129, 7.6, 0.077, 3.4, na, 0.518, na, 0.059, 0.514, 0.127, na, na, 0.010, na, na, 0.313, 0.275, na, 0.0727, na, na, na, na, na, na, 0.194, na, 6.4, 0.22, 0.346, na, na, na and na, na, na, na, na, na, 0.447, na, 0.089, 0.479, 0.489, 0.243, 0.747, 1, na, 1.9, 0.552, 2.1, na. na, na, na, na and na.
The compounds in listed in Table 1 has the corresponding inhibitory value (IC50 in micromolar) for NIK RelA Translocation Assay (values for compounds are presented in the same order as found in Table 1): 0.326, 0.33, na, na, na, 0.218, 0.07, na, na, na, na, na, 0.129, 7.6, 0.077, 3.4, na, 0.518, na, 0.059, 0.514, 0.127, na, na, 0.010, na, na, 0.313, 0.275, na, na, 0.0727, na, na, na, na, na, na, 0.194, na, 6.4, 0.22, 0.346, na, na, na, na, na, na, na, na, na, 0.447, na, 0.089, 0.479, 0.489, 0.243, 0.747, 1, na, 1.9, 0.552, 2.1, na, na, na, na, na and na.

[2] = tested on: p52 (NF-kB2) nuclear translocation in HeLa cells; test: NIK p52 Translocation Assay (non-classical NF-kB signaling); type: cell-based; conditions: Homo sapiens; HeLa cells, 100 ng/mL anti-lymphotoxin beta receptor antibody, 5 hours; read-out: inhibitory value (IC50) for NIK p52 Translocation Assay
Experimental: as §1

[3] = tested on: human embryonic kidney 293 cells; test: 293-NIK TK Renilla Luciferase reporter (general measure of cell viability); type: cell-based; conditions: HEK293, 293 cells, constitutive Renilla luciferase, 24 hours, read-out: inhibitory value (IC50) for 293-NIK TK Renilla Luciferase activity
Description: (§2) (1) The first assay was used to profile whether a test compound can inhibit the NF-kB signally through NIK inhibition without affecting cell viability. In this assay, human embryonic kidney 293 cells was stably transfected with a tetracycline-inducible NIK DNA construct containing a cytomegalovirus promoter plus two reporter DNA constructs. One reporter encoded firefly luciferase under the control of three repeats of an NF-kB response element from the ELAM-1 gene and reflects the level of NIK activity in the cells, whereas the other reporter constitutively expressed Renilla luciferase under the control of the herpes simplex virus thymidine kinase promoter and served as a general measure of cell viability. Cells were incubated with different concentrations of compounds (0.2% DMSO final) in medium containing 1 ug/mL doxycycline and 10% tet-system approved fetal bovine serum (Clontech) for 24 hours, after which the reporters' signals were detected using the Dual Glo luciferase detection system (Promega) according to the vendor's protocol. The compounds listed in Table 1 have the corresponding inhibitory value (IC50 in micromolar) for 293-NIK NF-kB-Luciferase activity (values for compounds are presented in the same order as found in Table 1): na, 0.059, na, na, na, 0.105, 0.027, na, 20, 1.2, na, 1.8, 0.0231, 0.879, 0.0361, 0.582, na, 0.142, na, 0.403, 0.059, 0.0331, na, na, 0.0573, 1.5, na, na, 0.0722, na, na, 0.589, 12.7, 3.7, 14.9, na, 0.707, 1, 0.0311, 0.332, 0.309, 0.0142, 0.051, 2.8, 0.129, na, na, 1.5, na, na, na, 1.3, 0.062, 20, 0.31, 0.104, 0.091, 0.037, 0.085, 0.279, na, 0.305, 0.064, 0.332, 0.133, 0.168, 0.217, 0.553, na and na.
The compounds in listed in Table 1 have the corresponding inhibitory value (IC50 in micromolar) for 293-NIK TK Renilla Luciferase activity: (values for compounds are presented in the same order as found in Table 1): 6.4, 3.6, 20, na, 1.6, 9.3, 18.5, na, na, 2.6, na, na, na, na, na, na, na, na, na, na, na, na, na, na, na, na, na, na, na, na, na, na, na, na, na, na, na, na, na, na, na, na, na, na, na, na, na, >20, na, na, na, 20, >20, 17, 1.3, 15.6, 0.967, 2.7, 11.2, 5.1, na, 20, 20, 20, 20, 20, 17.6, 20, na and na.

[4] = molecular target: T1, nuclear factor-kappa B (NF-kB)-inducing kinase (NIK) (Homo sapiens, UniProt Q99558); test: NIK Enzyme Inhibition Assay (Transcreener ADP assay); type: biochemical; conditions: purified NIK 0.2-1 nM, 10 uM ATP, fluorescence polarization, Morrison's quadratic equation; read-out: inhibitory value (Ki) for NIK
T1 construct: made in house; host or cells: baculovirus-infected insect cells
T1 sequence (Q99558 whole entry): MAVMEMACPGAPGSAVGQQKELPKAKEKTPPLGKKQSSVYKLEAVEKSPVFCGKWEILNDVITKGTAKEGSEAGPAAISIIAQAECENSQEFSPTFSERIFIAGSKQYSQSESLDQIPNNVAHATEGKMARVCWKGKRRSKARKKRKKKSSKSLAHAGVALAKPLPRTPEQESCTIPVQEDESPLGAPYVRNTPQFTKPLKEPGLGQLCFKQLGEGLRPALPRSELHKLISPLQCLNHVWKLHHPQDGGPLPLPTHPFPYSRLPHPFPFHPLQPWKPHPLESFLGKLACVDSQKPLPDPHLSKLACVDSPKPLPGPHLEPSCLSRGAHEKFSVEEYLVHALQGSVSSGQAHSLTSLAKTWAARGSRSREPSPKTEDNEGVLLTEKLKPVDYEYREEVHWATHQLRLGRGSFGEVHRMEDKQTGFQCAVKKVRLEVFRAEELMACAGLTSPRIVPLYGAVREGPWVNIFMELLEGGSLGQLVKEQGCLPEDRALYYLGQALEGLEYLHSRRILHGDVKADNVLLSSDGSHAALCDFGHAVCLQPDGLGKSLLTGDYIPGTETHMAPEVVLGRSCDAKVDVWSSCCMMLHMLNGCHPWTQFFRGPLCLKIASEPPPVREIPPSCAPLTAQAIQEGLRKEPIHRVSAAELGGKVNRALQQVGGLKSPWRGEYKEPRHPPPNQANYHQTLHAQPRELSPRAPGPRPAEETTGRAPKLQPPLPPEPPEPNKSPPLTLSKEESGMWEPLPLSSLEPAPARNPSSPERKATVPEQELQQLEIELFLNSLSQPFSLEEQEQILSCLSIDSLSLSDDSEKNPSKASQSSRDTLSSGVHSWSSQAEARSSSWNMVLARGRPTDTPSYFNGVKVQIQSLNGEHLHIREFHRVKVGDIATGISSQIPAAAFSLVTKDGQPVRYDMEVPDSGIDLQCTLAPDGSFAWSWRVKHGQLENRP

[5] = tested on: NF-kB signaling through NIK in human embryonic kidney 293 cells; test: 293-NIK NF-kB-Luciferase reporter assay; type: cell-based; conditions: HEK293, 293 cells with tetracycline-inducible NIK, 1 ug/mL doxycycline, 24 hours, read-out: inhibitory value (IC50) for 293-NIK NF-kB-Luciferase activity
Description: as §2

Structure (SMILES) | IC50 [1] | Ki [4] | IC50 [2] | IC50 [3] | IC50 [5]
CC(O)(C#Cc1ccc2cnn(-c3ccnc(N)n3)c2c1)c1nccs1 (centres unmarked) [Example T1-1, 4-(1-(2-aminopyrimidin-4-yl)-1H-indazol-6-yl)-2-(thiazol-2-yl)but-3-yn-2-ol] | 326 nM | – | 326 nM | 6400 nM | –
N#Cc1ccc2cnn(-c3ccnc(N)n3)c2c1 [Example T1-3, 1-(2-aminopyrimidin-4-yl)-1H-indazole-6-carbonitrile] | – | – | – | ≥ 20000 nM | –
Nc1nccc(-n2ncc3ccc(C#CC4(O)CCCC4)cc32)n1 [Example T1-5, 1-((1-(2-aminopyrimidin-4-yl)-1H-indazol-6-yl)ethynyl) cyclopentanol] | – | – | – | 1600 nM | –
CC(C)(O)C#Cc1ccc2ncn(-c3ccnc(N)n3)c2c1 [Example T1-10, 4-(1-(2-aminopyrimidin-4-yl)-1H-benzo[d]imidazol-6-yl)-2-methylbut-3-yn-2-ol] | – | 14.3 nM | – | 2600 nM | 1200 nM
Cc1cc(C(C)(O)C#Cc2ccc3c(C(=O)N4CCOCC4)nn(-c4ccnc(N)n4)c3c2)no1 (centres unmarked) [Example T1-65, (1-(2-aminopyrimidin-4-yl)-6-(3-hydroxy-3-(5-methyl-isoxazol-3-yl)but-1-ynyl)-1H-indazol-3-yl)(morpholino) methanone] | – | 2.65 nM | – | ≥ 20000 nM | 133 nM
Cc1cc(C(C)(O)C#Cc2ccc3c(C(=O)N4CCCC4)nn(-c4ccnc(N)n4)c3c2)no1 (centres unmarked) [Example T1-66, (1-(2-aminopyrimidin-4-yl)-6-(3-hydroxy-3-(5-methyl-isoxazol-3-yl)but-1-ynyl)-1H-indazol-3-yl)(pyrrolidin-1-yl) methanone] | – | 1.27 nM | – | ≥ 20000 nM | 168 nM

The remaining molecules from weak to strong by Ki [4], led by results:

IC50 [1] | Ki [4] | Structure (SMILES) | IC50 [2] | IC50 [3] | IC50 [5]
– | 105 nM | Cc1nn(-c2ccnc(N)n2)c2cc(C#CC(C)(O)c3cncs3)ccc12 (centres unmarked) [Example T1-54, 4-(1-(2-aminopyrimidin-4-yl)-3-methyl-1H-indazol-6-yl)-2-(thiazol-5-yl)but-3-yn-2-ol] | 489 nM | 17000 nM | 20000 nM
1900 nM | 17 nM | Cc1nn(-c2ccnc(N)n2)c2cc(C#CC(C)(O)c3cnccn3)ccc12 (centres unmarked) [Example T1-62, 4-(1-(2-aminopyrimidin-4-yl)-3-methyl-1H-indazol-6-yl)-2-(pyrazin-2-yl)but-3-yn-2-ol] | – | ≥ 20000 nM | 305 nM
– | 13 nM | Cc1cc(C(C)(O)C#Cc2ccc3c(C)nn(-c4ccnc(N)n4)c3c2)on1 (centres unmarked) [Example T1-48, 4-(1-(2-aminopyrimidin-4-yl)-3-methyl-1H-indazol-6-yl)-2-(3-methylisoxazol-5-yl)but-3-yn-2-ol] | – | > 20000 nM | 1500 nM
– | 10 nM | Cc1cc(C(C)(O)C#Cc2ccc3c(C(=O)N(C)C)nn(-c4ccnc(N)n4)c3c2)on1 (centres unmarked) [Example T1-52, 1-(2-aminopyrimidin-4-yl)-6-(3-hydroxy-3-(3-methyl-isoxazol-5-yl)but-1-ynyl)-N,N-dimethyl-1H-indazole-3-carboxamide] | 89 nM | ≥ 20000 nM | 1300 nM
2100 nM | 5 nM | Cc1cc(C(C)(O)C#Cc2ccc3nc(C)n(-c4ncnc(N)n4)c3c2)no1 (centres unmarked) [Example T1-64, 4-(1-(4-amino-1,3,5-triazin-2-yl)-2-methyl-1H-benzo[d]imidazol-6-yl)-2-(5-methyl-isoxazol-3-yl)but-3-yn-2-ol] | – | ≥ 20000 nM | 332 nM
– | 4 nM | Cc1nn(-c2ccnc(N)n2)c2cc(C#CC(C)(O)c3ncccn3)ccc12 (centres unmarked) [Example T1-67, 4-(1-(2-aminopyrimidin-4-yl)-3-methyl-1H-indazol-6-yl)-2-(pyrimidin-2-yl)but-3-yn-2-ol] | – | 17600 nM | 217 nM
– | 2.7 nM | COCc1nc2ccc(C#C[C@@](C)(O)c3nccs3)cc2n1-c1ncnc(N)n1 [Example T1-68, (R)-4-(1-(4-amino-1,3,5-triazin-2-yl)-2-(methoxymethyl)-1H-benzo[d]imidazol-6-yl)-2-(thiazol-2-yl)but-3-yn-2-ol] | – | ≥ 20000 nM | 553 nM
552 nM | 0.23 nM | C[C@@](O)(C#Cc1ccc2nc(C3CC3)n(-c3ncnc(N)n3)c2c1)c1nccs1 [Example T1-63, (R)-4-(1-(4-amino-1,3,5-triazin-2-yl)-2-cyclopropyl-1H-benzo[d]imidazol-6-yl)-2-(thiazol-2-yl)but-3-yn-2-ol] | – | ≥ 20000 nM | 64 nM
243 nM | 0.15 nM | Cc1cc(C(C)(O)C#Cc2ccc3c(C)nn(-c4ccnc(N)n4)c3c2)no1 (centres unmarked) [Example T1-58, 4-(1-(2-aminopyrimidin-4-yl)-3-methyl-1H-indazol-6-yl)-2-(5-methylisoxazol-3-yl)but-3-yn-2-ol] | – | 2700 nM | 37 nM
